Laboratory results: patent US10226530B2, “Methods for treating and/or limiting development of diabetes” (Biocrine AB, priority 2011, dated 2019)
“Also recorded” adds a separate entry of the source.

Key:
[1] = tested on: β cell CaV channels; test: perforated whole-cell patch-clamp of Ca2+ currents in RINm5F cells; assay type: cell-based, rat
Method: (§1) Islets of Langerhans were isolated from adult male and female mice and dispersed into single ([…]. RINm5F cells at about 70% confluency were trypsinized. The resultant suspension of cells was seeded into Petri dishes or 12-well plates. The cells were cultivated in RPMI 1640 medium supplemented with 10% fetal bovine serum, 2 mM L-glutamine, and 100 U/100 […] penicillin/streptomycin (Invitrogen, Carlsbad, Calif.) and maintained at 37° C. in a humidified 5% CO2 incubator. They were grown overnight and then subjected to siRNA transfection. For patch-clamp analysis, cells underwent overnight treatment with ApoCIII, the PKA inhibitor H-89 (Calbiochem, La Jolla, Calif.), the PKC inhibitor calphostin C (Calbiochem), the Src kinase inhibitor PP2 (Calbiochem) and the CaV1 channel blocker nimodipine (Calbiochem) in RPMI medium at final concentrations of 20 μg/ml, 0.5 μM, 0.1 μM, 0.1 μM and 5 μM, respectively. ApoCIII was dissolved in 0.1% triflouroacetic acid (TFA) to make a stock solution of 1 mg/ml, whereas H-89, calphostin C, PP2 and nimodipine were dissolved in dimethyl sulfoxide (DMSO) to form stock solutions of 5 mM, 1 mM, 1 mM and 10 mM, respectively. 0.002% TFA and/or 0.03% DMSO were used as vehicle controls.
Two pairs of 21-mer siRNA duplexes targeting the rat β1 integrin (β1 integrin siRNA #1, ID127971 and β1 integrin siRNA #2, ID127972) were designed and chemically synthesized by Applied Biosystems/Ambion (Austin, Tex.). Their sequences were subjected to BLAST search to ensure their specificity. Silencer® Select Negative Control siRNA (4390843), not targeting any gene product, and Silencer® Select GAPDH Positive Control siRNA (4390849), efficiently silencing GAPDH in human, mouse, and rat cells, were purchased from Applied Biosystems/Ambion (Austin, Tex.). RINm5F cells were reversely transfected with Lipofectamine™ RNAiMAX™. Briefly, negative control siRNA, β1 integrin siRNA #1 or β1 integrin siRNA #2 was mixed with Lipofectamine™ RNAiMAX™ followed by 20-min incubation at room temperature. Subsequently, cells were added to the siRNA/Lipofectamine™ RNAiMAX mixtures followed by gentle agitation and kept at 37° C. in a humidified 5% CO2 incubator. After 72 h, the transfected cells were grown to about 70% confluency and subjected to immunoblot assay or different treatments.
(§2) Mouse islet cells and RINm5F cells following different treatments were subjected to single channel and whole-cell patch-clamp measurements. Cell-attached and perforated whole-cell patch-clamp configurations were employed. Electrodes were made from borosilicate glass capillaries, fire-polished and coated with Sylgard close to their tips. Some of them were filled with a solution containing (in mM) 110 BaCl2, 10 TEA-Cl, and 5 HEPES (pH 7.4 with Ba(OH)2) for single channel measurements. Others were filled with a solution composed of (in mM) 76 Cs2SO4, 1 MgCl2, 10 KCl, 10 NaCl, and 5 HEPES (pH 7.35 with CsOH), as well as amphotericin B (0.24 mg/ml) for whole-cell current recordings. Electrode resistance ranged between 4 and 6 MΩ when they were filled with electrode solutions and immersed in bath solutions. The electrode offset potential was corrected in bath solutions prior to gigaseal formation. Single-channel recordings were performed with cells bathed in a depolarizing external recording solution, containing (in mM) 125 KCl, 30 KOH, 10 EGTA, 2 CaCl2, 1 MgCl2, and 5 HEPES-KOH (pH 7.15). This solution was used to bring the intracellular potential to 0 mV. For perforated whole-cell current measurements, the cells were bathed in a solution containing (in mM) 138 NaCl, 5.6 KCl, 1.2 MgCl2, 10 CaCl2, 5 HEPES (pH 7.4). Single channel and whole-cell currents were recorded with an Axopatch 200B amplifier (Molecular Devices, Foster City, Calif.) and an EPC-9 patch clamp amplifier (HEKA Elektronik, Lambrecht/Pfalz, Germany), respectively, at room temperature (about 22° C.). […]

[2] = tested on: CaV1.3; test: immunoblot of CaV1.3 subunit in RINm5F cell homogenates; assay type: cell-based, rat; details: overnight ApoCIII; P>0.05
Method: as §1, with “ApoCIII was dissolved in 0.1% triflouroacetic acid (TFA) to make a stock solution of 1 mg/ml, whereas H-89, calphostin C, PP2 and nimodipine were dissolved in dimethyl sulfoxide (DMSO) to form stock solutions of 5 mM, 1 mM, 1 mM and 10 mM, respectively. 0.002% TFA and/or 0.03% DMSO were used as vehicle controls.” left out
(§3) RINm5F cells following different treatments were lysed in a lysis buffer (pH 7.5) consisting of 50 mM HEPES, 150 mM NaCl, 1 mM EGTA, 1 mM EDTA, 10% glycerol, 1% triton X-100, 1 mM PMSF and a protease inhibitor cocktail (Roche Diagnostics, Mannheim, Germany). […] The protein concentration of the resulting samples was determined with Bio-Rad protein assay reagent (Bio-Rad, Hercules, Calif.). […]

[3] = tested on: β cell CaV channels; details: mouse islet β cell; Juntti-Berggren et al., 2004; cited from earlier work
[4] = tested on: CaV1 channels; test: cell-attached single channel patch-clamp of unitary CaV1 channel currents in mouse islet β cells; assay type: cell-based
Method: as §1
as §2, with “For perforated whole-cell current measurements, the cells were bathed in a solution containing (in mM) 138 NaCl, 5.6 KCl, 1.2 MgCl2, 10 CaCl2, 5 HEPES (pH 7.4).” left out

[5] = tested on: CaV1.2; test: immunoblot of CaV1.2 subunit in RINm5F cell homogenates; assay type: cell-based, rat; details: overnight ApoCIII; P>0.05
Method: as §1, with “ApoCIII was dissolved in 0.1% triflouroacetic acid (TFA) to make a stock solution of 1 mg/ml, whereas H-89, calphostin C, PP2 and nimodipine were dissolved in dimethyl sulfoxide (DMSO) to form stock solutions of 5 mM, 1 mM, 1 mM and 10 mM, respectively. 0.002% TFA and/or 0.03% DMSO were used as vehicle controls.” left out
as §3

[6] = tested on: CaV1 channels; test: cell-attached single channel patch-clamp of unitary CaV1 channel currents in RINm5F cells; assay type: cell-based, rat; details: ApoCIII 20 μg/ml overnight versus vehicle solution
Method: as §1
as §2, with “For perforated whole-cell current measurements, the cells were bathed in a solution containing (in mM) 138 NaCl, 5.6 KCl, 1.2 MgCl2, 10 CaCl2, 5 HEPES (pH 7.4).” left out

[7] = H-89 0.5 μM, ApoCIII 20 μg/ml, overnight
[8] = ApoCIII 20 μg/ml overnight versus control vehicle

O=S(=O)(NCCNC/C=C/c1ccc(Br)cc1)c1cccc2cnccc12 [H-89]
Ca2+ current density, cotreatment of ApoCIII and H-89 versus cells treated with ApoCIII [1, 7]: did not significantly differ | Ca2+ current density, cotreatment of ApoCIII and H-89 versus control cells [1, 7]: did not significantly differ | Ca2+ current densities under basal conditions, H-89 versus control ([1]; H-89 0.5 μM, absence of ApoCIII): did not significantly influence

calphostin C [CalpC]
Ca2+ current density, ApoCIII/CalpC-cotreated cells versus ApoCIII-treated cells ([1]; calphostin C 0.1 μM): no difference | Ca2+ current density, CalpC-treated cells versus control vehicle ([1]; calphostin C 0.1 μM, absence of ApoCIII): similar | mean Ca2+ current density, ApoCIII/CalpC versus vehicle control cells ([1]; voltage range from 20 to 50 mV, calphostin C 0.1 μM): increased significantly

apolipoprotein CIII [ApoCIII]
relative abundance of CaV1.3 subunits, ApoCIII incubation versus vehicle incubation [2]: no significant difference | whole-cell Ca2+ currents after ApoCIII incubation [3]: significantly enhances | density of whole-cell Ca2+ currents, ApoCIII group versus control group ([1]; no voltage range printed, H-89/PP2 experiment): Significantly higher | Ca2+ current density, NC siRNA/apoCIII versus NC siRNA/Control ([1]; voltage range 10-40 mV, negative control siRNA-transfected cells): significant increase | whole-cell Ca2+ current density, ApoCIII-treated cells versus vehicle control cells ([1]; voltage range 10 to 50 mV, ApoCIII 20 μg/ml overnight): significantly higher; also recorded: increased significantly; also recorded: significantly elevated; also recorded: significantly increased | whole-cell Ca2+ current density, ApoCIII group versus control group ([1]; voltage range from 10 to 30 mV, ApoCIII 20 μg/ml overnight): significantly higher | mean closed time of unitary CaV1 channels ([4]; ApoCIII 20 μg/ml overnight versus control patches): significantly shorter | mean open time of unitary CaV1 channels [4, 8]: significantly greater | open probability of unitary CaV1 channels [4, 8]: significantly greater | average number of unitary CaV1 channels ([4]; ApoCIII 20 μg/ml overnight versus control vehicle, plasma membrane patches): significantly greater | relative abundance of CaV1.2 subunits, ApoCIII incubation versus vehicle incubation [5]: no significant difference | channel number of CaV1 channels [6]: significantly increased | mean closed time of CaV1 channels [6]: shortened | mean open time of CaV1 channels [6]: prolonged | open probability of CaV1 channels [6]: elevated

CC(C)(C)n1nc(-c2ccc(Cl)cc2)c2c(N)ncnc21 [PP2]
difference in Ca2+ current density to vehicle: ApoCIII/PP2-cotreated cells compared with that of ApoCIII-treated cells ([1]; PP2 0.1 μM): less prominent | Ca2+ current densities, cells incubated with PP2 versus vehicle-treated cells ([1]; PP2 0.1 μM, absence of ApoCIII): similar | Ca2+ currents, cotreatment of ApoCIII and PP2 versus vehicle control cells ([1]; voltage range 20-40 mV, PP2 0.1 μM): significantly larger
